Patent US20260357222A1, “GROWTH-BASED SELECTION PLATFORM FOR NONCANONICAL COFACTOR OXIDIZING ENZYMES” (The Regents of the University of California, priority 2022, published 2026)
Changes are numbered by the printed parent chain.

Key:
[1] = target: T1, Lactobacillus pentosus NADH oxidase (Lp Nox) variant LP-3-EP (I158S-D177W-G178E-V240L-P362H-V395L), SEQ ID NO:7 (Lactiplantibacillus pentosus, UniProt A0A0U3FIG2, D177W/G178E/I158S/P362H/V240L/V395L); assay: Lp Nox enzymatic kinetics, cofactor oxidation at 340 nm, variant LP-3-EP; type: biochemical
T1 construct: variant LP-3-EP
T1 sequence (A0A0U3FIG2 1-450 I158S/D177W/G178E/V240L/P362H/V395L): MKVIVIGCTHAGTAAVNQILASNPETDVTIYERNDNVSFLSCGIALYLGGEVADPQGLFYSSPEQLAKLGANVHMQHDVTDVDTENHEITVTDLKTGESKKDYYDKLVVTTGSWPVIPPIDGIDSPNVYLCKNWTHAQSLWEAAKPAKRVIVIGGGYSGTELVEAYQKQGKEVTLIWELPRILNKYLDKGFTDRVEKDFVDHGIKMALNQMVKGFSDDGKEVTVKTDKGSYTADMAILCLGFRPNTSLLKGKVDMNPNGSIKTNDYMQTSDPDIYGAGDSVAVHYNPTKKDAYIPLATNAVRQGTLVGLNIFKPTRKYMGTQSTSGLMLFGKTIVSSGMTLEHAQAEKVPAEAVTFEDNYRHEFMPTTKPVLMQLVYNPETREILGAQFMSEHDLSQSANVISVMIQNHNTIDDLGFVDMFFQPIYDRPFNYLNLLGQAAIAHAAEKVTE
Description: (§1) Protein Expression and Purification. Lp Nox wild type or variants (see Table 1) are expressed with E. coli BL21 (DE3) with plasmids inoculated in 2× YT media with 200 mg L^−1 ampicillin. Expression was carried out by inoculation of 20 mL 2× YT media supplied with antibiotics and an overnight culture incubated at 30 °C, 250 RPM with an OD600nm of 0.072. Cells were grown at 37 °C in 50 mL conical tubes, and the cultures were induced with 0.5 mM IPTG at an OD600nm of 0.6-1.0. The 20 mL culture was then incubated at 27 °C and 250 RPM for 24 h. After 24 h, cells were harvested for protein extraction (centrifugation at 4 °C, 3000 RPM, 20 min). Cell pellets were resuspended in Zymo His-Binding buffer (Zymo Research Corporation) supplied with 0.15 mM FAD, 1 μL/mL DNase (Sigma Aldrich) and 1 mM InSolution [COMPOUND LEFT OUT] (Sigma Aldrich). The resuspended cell mixture was added to 0.5 mL of 0.1 mm glass beads (Biospec) and homogenized using a benchtop homogenizer (MP Biomedicals). Cell debris was separated from the crude extract by centrifugation at 4 °C and 15,000 RPM for 5 min. Protein purification was performed using His-Spin Protein Miniprep (Zymo Research Corporation) according to the manufacturer's instructions. The concentrations of purified protein were quantified by a Bradford assay using BSA as a standard. Purified protein was stored in aliquots with 20% (v/v) glycerol at −80 °C.
(§2) NMNH generation. NMNH generation was performed in 20 mL reaction volumes in a 50 ml conical tube containing 200 mM Tris-Cl at pH 8.0, 100 mM sodium chloride, 3 mM potassium chloride, 200 mM glucose, and 20 m MNMN^+. The reaction was initiating by spiking 500 ng of purified Bacillus subtilis glucose dehydrogenase I195R8. The reaction was incubated at 30 °C until reaction progression stopped, approximately 6 h. Reaction progression was monitored by observing the increase in light absorption at 340 nm, corresponding to the reduction of NMN^+ to NMNH. Then, the solution was filtered through a 15 kD cutoff filter to remove the protein. To purify the NMNH, the flowthrough was mixed with HPLC-grade acetonitrile to a final concentration of 70% acetonitrile, and the solution was passed through a Phenomenex Strata NH2 (2 g/12 mL, 55 μm, 70 Å) solid phase extraction column. The column was washed twice with 4 mL of 70:30 acetonitrile:water, then twice with 4 mL of 50:50 acetonitrile:water, twice with 4 mL of 30:70 acetonitrile:water, twice with 4 mL of nanopurified water, and finally twice with 4 mL of methanol. To elute the NMNH from the column, 2 mL of a solution containing 50:50 ammonium hydroxide:methanol was added to the column and incubated for 3 minutes before eluting. The elution step was repeated until no NMNH remained in the flow through, as monitored by light absorption at 340 nm. The elution fractions containing NMNH were pooled and aliquoted in 1 mL volumes into clean tubes. The solutions were dried over air and stored at −80 °C until use.
(§3) Lp Nox Enzymatic Assays and Kinetic study with NMNH, NAD(P) H. The Lp Nox activity (see FIG. 4A) was determined by the change in light absorption at 340 nm at 37 °C in 50 mM Tris-Cl buffer pH 7.0. The reactions were started by adding the purified protein to the prewarmed 37 °C assay mixture containing 0.3 mM of respective cofactor. The absorbance change at 340 nm for NAD(P) H and NMNH was detected using a SpectraMax M3 microplate reader. For kinetics parameter determination (see Table 2), cofactor concentrations were varied from 0 to 2 mM and the results were fitted to the standard Michaelis-Menten equation or Lineweaver-Burk equation to acquire catalytic efficiencies (kcat/Km) when the cofactor concentration tested could not saturate the enzyme activity or during the presence of substrate inhibition. Cofactor concentration over 2 mM could not be measured accurately on M3 spectrometer due to detector absorbance saturation at 340 nm.

[2] = target: T2, Lactobacillus pentosus NADH oxidase (Lp Nox) variant LP-7 (I158S-D177W-V240L), SEQ ID NO:3 (Lactiplantibacillus pentosus, UniProt A0A0U3FIG2, D177W/I158S/V240L); assay: Lp Nox enzymatic kinetics, cofactor oxidation at 340 nm, variant LP-7; type: biochemical; settings: role: cofactor
T2 construct: variant LP-7
T2 sequence (A0A0U3FIG2 1-450 I158S/D177W/V240L): T1 sequence (A0A0U3FIG2 1-450 I158S/D177W/G178E/V240L/P362H/V395L) with E178G, H362P, L395V
Description: as §1, §2, §3

[3] = apparent, 50 mM Tris-HCl pH 7.0, 37 °C, cofactor 0 to 2 mM

Compound | kcat/Km ([1]; role: cofactor, 50 mM Tris-HCl pH 7.0, 37 °C, estimated based on kinetics under lower cofactor concentrations before inhibition was observed) | inhibition of LP 3-EP activity by the cofactor ([1]; role: inhibitor (cofactor inhibition), above 1 mM NADH or NADPH, fits poorly with the substrate inhibition rate equation) | Km [2, 3] [µM] | kcat [2, 3] [s⁻¹] | kcat/Km [2, 3] [M⁻¹ s⁻¹] | kcat/Km (catalytic efficiency for NMNH) ([1]; role: cofactor, 50 mM Tris-HCl pH 7.0, 37 °C, enzyme could not be saturated with the cofactor concentrations tested) [M⁻¹ s⁻¹] | inhibition effect when NMNH was utilized ([1]; role: cofactor, NMNH as cofactor) | gain of catalytic efficiency for NMNH from LP 3 ([1]; role: cofactor, ratio of kcat/Km to LP 3) | increase of catalytic efficiency for NMNH from the wild type ([1]; role: cofactor, ratio of kcat/Km to wild type) | kcat/Km (catalytic efficiency for NMNH) ([2]; 50 mM Tris-HCl pH 7.0, 37 °C, enzyme could not be saturated with the cofactor concentrations tested) [M⁻¹ s⁻¹] | increase of catalytic efficiency for NMNH from the wild type ([2]; ratio of kcat/Km to wild type)
NC(=O)C1=CN([C@@H]2O[C@H](COP(=O)(O)OP(=O)(O)OC[C@H]3O[C@@H](n4cnc5c(N)ncnc54)[C@H](OP(=O)(O)O)[C@@H]3O)[C@@H](O)[C@H]2O)C=CC1 [NADPH, nicotinamide adenine dinucleotide phosphate] | 51 ± 3^c mM^−1s^−1 | strongly inhibited | 890 ± 40 | 27 ± 2 | 31000 ± 1000 |  |  |  |  |  | 
NC(=O)C1=CN([C@@H]2O[C@H](COP(=O)(O)O)[C@@H](O)[C@H]2O)C=CC1 [NMNH, nicotinamide mononucleotide] |  |  |  |  |  | 23000 ± 1000 | not seen | ~ 2.5 fold | ~ 10 fold | 18000 ± 1000 | ~ 8 fold
